Measurements reported in patent US12509452B2, “Substituted-isoxazoline-containing aromatic compound, preparation method therefor, herbicidal composition and use thereof” (QINGDAO KINGAGROOT CHEMICAL COMPOUND CO., LTD., priority 2019, dated 2025).

Assays:
Test in all cases: weeding effect in post-emergence stage
Format in all cases: in vivo
Alopecurus japonicus = test system: Alopecurus japonicus
Text: (§1) The activity level criteria for plant damage (i.e., growth control rate) are as follows: • Level 5: growth control rate is above 85%; • Level 4: growth control rate is greater than or equal to 60% and less than 85%; • Level 3: growth control rate is greater than or equal to 40% and less than 60%; • Level 2: growth control rate is greater than or equal to 20% and less than 40%; • Level 1: growth control rate is greater than or equal to 5% and less than 20%; • Level 0: growth control rate is less than 5%.
(§2) The above growth control rates are fresh weight control rates.
(§3) Experiment on weeding effect in post-emergence stage:
(§4) Monocotyledonous and dicotyledonous weed seeds (Descurainia sophia, Capsella bursa-pastoris, Abutilon theophrasti, Galium aparine, Stellaria media, Lithospermum arvense, Rorippa indica, Alopecurus aequalis, Alopecurus japonicus, Beckmannia syzigachne, Sclerochloa dura, Conyza Canadensis, Phleum paniculatum, Veronica didyma Tenore, Bromus japonicus, Aegilops tauschii, Phalaris arundinacea, Amaranthus retroflexus, Chenopodium album, Commelina communis, Sonchus arvensis, Convolvulus arvensis, Cirsium setosum, Solanum nigrum, Acalypha australis, Digitaria sanguinalis, Echinochloa crusgalli, Setaria viridis, Setaria glauca, Leptochloa chinensis, Monochoria vaginalis, Sagittaria trifolia, Scirpus juncoides, Cyperus rotundus, Cyperus iria, Cyperus difformis, Fimbristylis, Portulaca oleracea, Xanthium sibiricum, Pharbitis nil, Conyza japonica, etc.) and major crop seeds (wheat, corn, rice, soybean, cotton, oilseed rape, millet, sorghum, potato, sesame, ricinus, etc.) were placed in plastic pots filled with soil, then covered with 0.5-2 cm of soil, allowed to grow in a good greenhouse environment. After 2 weeks of sowing, the test plants were treated in the 2-3 leaf stage. The tested compounds of the present invention were respectively dissolved in acetone, then added with Tween 80 and 1.5 liter/ha of emulsifiable concentrate of methyl oleate as synergist, diluted with a certain amount of water to obtain a solution with a certain concentration, and sprayed with a spray tower onto the plants. After the application, the plants were cultured for 3 weeks in the greenhouse, and then the experimental results of the weeding were counted. The doses of the used compounds were 500, 250, 125, 60, 15, 7.5 g a.i./ha, and the averages were obtained by repeating for three times.

Beckmannia syzigachne = test system: Beckmannia syzigachne
Text: as §1, §2, §3, §4

Conyza japonica = test system: Conyza japonica
Text: as §1, §2, §3, §4

Rorippa indica = test system: Rorippa indica
Text: as §1, §2, §3, §4

Row | Structure (SMILES) | weeding effect in post-emergence stage, Alopecurus japonicus (activity level) (Alopecurus japonicus; dose 15 g a.i./ha) | weeding effect in post-emergence stage, Alopecurus japonicus (activity level) (Alopecurus japonicus; dose 125 g a.i./ha) | weeding effect in post-emergence stage, Beckmannia syzigachne (activity level) (Beckmannia syzigachne; dose 15 g a.i./ha) | weeding effect in post-emergence stage, Beckmannia syzigachne (activity level) (Beckmannia syzigachne; dose 125 g a.i./ha) | weeding effect in post-emergence stage, Conyza japonica (activity level) (Conyza japonica; dose 15 g a.i./ha) | weeding effect in post-emergence stage, Conyza japonica (activity level) (Conyza japonica; dose 125 g a.i./ha) | weeding effect in post-emergence stage, Rorippa indica (activity level) (Rorippa indica; dose 15 g a.i./ha) | weeding effect in post-emergence stage, Rorippa indica (activity level) (Rorippa indica; dose 125 g a.i./ha)
1 | CCCCC1(C(=O)OCC)CC(c2cc(-n3c(=O)n(C)c(=S)n(C)c3=O)c(F)cc2Cl)=NO1 (racemic) [Compound 6] | 5 (Level 5: growth control rate is above 85%) | 5 (Level 5: growth control rate is above 85%) | 5 (Level 5: growth control rate is above 85%) | 5 (Level 5: growth control rate is above 85%) | 5 (Level 5: growth control rate is above 85%) | 5 (Level 5: growth control rate is above 85%) | 5 (Level 5: growth control rate is above 85%) | 5 (Level 5: growth control rate is above 85%)
2 | CCCOC(=O)C1(C)CC(c2cc(-n3c(=O)n(C)c(=S)n(C)c3=O)c(F)cc2Cl)=NO1 (centres unmarked) [Compound 1-70] | 5 (Level 5: growth control rate is above 85%) |  | 5 (Level 5: growth control rate is above 85%) |  | 5 (Level 5: growth control rate is above 85%) |  | 5 (Level 5: growth control rate is above 85%) | 
3 | CCOC(=O)C1(C2CC2)CC(c2cc(-n3c(=S)cc(C(F)(F)F)n(C)c3=O)c(F)cc2Cl)=NO1 (racemic) [Compound 231] |  | 5 (Level 5: growth control rate is above 85%) | 4 (Level 4: growth control rate is greater than or equal to 60% and less than 85%) | 5 (Level 5: growth control rate is above 85%) | 5 (Level 5: growth control rate is above 85%) | 5 (Level 5: growth control rate is above 85%) | 5 (Level 5: growth control rate is above 85%) | 5 (Level 5: growth control rate is above 85%)
4 | COC(=O)[C@]1(OC)CC(c2cc(-n3c(=O)cc(C(F)(F)F)n(C)c3=O)c(F)cc2Cl)=NO1 [226(S)] | 5 (Level 5: growth control rate is above 85%) |  | 5 (Level 5: growth control rate is above 85%) |  | 5 (Level 5: growth control rate is above 85%) |  | 5 (Level 5: growth control rate is above 85%) | 
5 | CCOC(=O)C1(C)CC(c2cc(-n3c(=O)n(C(C)C)c(=S)n(C(C)C)c3=O)c(F)cc2Cl)=NO1 (centres unmarked) [Compound 1-65] | 5 (Level 5: growth control rate is above 85%) |  | 5 (Level 5: growth control rate is above 85%) |  | 5 (Level 5: growth control rate is above 85%) |  | 5 (Level 5: growth control rate is above 85%) | 
6 | Cn1c(=S)n(C)c(=O)n(-c2cc(C3=NOC(C)(C(=O)OC(C)(C)C)C3)c(Cl)cc2F)c1=O (centres unmarked) [Compound 1-74] | 5 (Level 5: growth control rate is above 85%) |  | 5 (Level 5: growth control rate is above 85%) |  | 5 (Level 5: growth control rate is above 85%) |  | 5 (Level 5: growth control rate is above 85%) | 
7 | COC(=O)C1(Cc2ccccc2)CC(c2cc(-n3c(=O)n(C)c(=S)n(C)c3=O)c(F)cc2Cl)=NO1 (racemic) [Compound 59] |  | 5 (Level 5: growth control rate is above 85%) |  | 5 (Level 5: growth control rate is above 85%) |  | 5 (Level 5: growth control rate is above 85%) |  | 5 (Level 5: growth control rate is above 85%)
8 | COC(=O)C1(c2ccccc2)CC(c2cc(-n3c(=O)n(C)c(=S)n(C)c3=O)c(F)cc2Cl)=NO1 (racemic) [Compound 56] |  | 5 (Level 5: growth control rate is above 85%) |  | 5 (Level 5: growth control rate is above 85%) |  | 5 (Level 5: growth control rate is above 85%) |  | 5 (Level 5: growth control rate is above 85%)
9 | CCOC(=O)[C@@]1(C(C)C)CC(c2cc(-n3c(=O)n(C)c(=S)n(C)c3=S)c(F)cc2Cl)=NO1 [204(S)] | 5 (Level 5: growth control rate is above 85%) |  | 5 (Level 5: growth control rate is above 85%) |  | 5 (Level 5: growth control rate is above 85%) |  | 5 (Level 5: growth control rate is above 85%) | 
10 | CCOC(=O)C1(CO)CC(c2cc(-n3c(=O)cc(C(F)(F)F)n(C)c3=O)c(F)cc2Cl)=NO1 (racemic) [Compound 142] |  | 5 (Level 5: growth control rate is above 85%) |  | 5 (Level 5: growth control rate is above 85%) |  | 5 (Level 5: growth control rate is above 85%) |  | 5 (Level 5: growth control rate is above 85%)
11 | COC(=O)[C@@]1(c2ccccc2)CC(c2cc(-n3c(=O)n(C)c(=S)n(C)c3=O)c(F)cc2Cl)=NO1 [56(S)] | 5 (Level 5: growth control rate is above 85%) |  | 5 (Level 5: growth control rate is above 85%) |  | 5 (Level 5: growth control rate is above 85%) |  | 5 (Level 5: growth control rate is above 85%) | 
12 | CCOC(=O)COC(C)C1(C(=O)OCC)CC(c2cc(-n3c(=O)n(C)c(=S)n(C)c3=O)c(F)cc2Cl)=NO1 (mixture of isomers) [Compound 55] |  | 5 (Level 5: growth control rate is above 85%) |  | 5 (Level 5: growth control rate is above 85%) |  | 5 (Level 5: growth control rate is above 85%) |  | 5 (Level 5: growth control rate is above 85%)
13 | COC(=O)C1(F)CC(c2cc(-n3c(=O)cc(C(F)(F)F)n(C)c3=O)c(F)cc2Cl)=NO1 (racemic) [Compound 129] |  | 5 (Level 5: growth control rate is above 85%) |  | 5 (Level 5: growth control rate is above 85%) |  | 5 (Level 5: growth control rate is above 85%) |  | 5 (Level 5: growth control rate is above 85%)
